The term IC50 denotes the concentration at which inhibition is half-maximal.

For data set [1], the system named is IL-15 induced STAT5 phosphorylation in human whole blood lymphocytes. Nature of the data set: HWB IL-15 induced STAT5 phosphorylation assay. Format: cell-based. The conditions noted are these: IL-15 stimulated, read-out: HWB-IL15-pSTAT5 IC50. As to the method:
HWB IL-15 Induced STAT5 Phosphorylation Assay
After mixing and incubating for 45 minutes at 37° C., 5 μl D-PBS (unstimulated control) or 20× stocks of 5 μl human IL-15 (final concentration is 50 ng/ml) were added, and mixed three times. After incubating 15 minutes at 37° C., 1× Lyse/Fix Buffer (BD Phosflow 5× Lyse/Fix Buffer) was added to all wells at 1000 μl/well, then incubated for 20 minutes at 37° C. and spun 5 mins at 1200 rpm. […] Following incubating at 4° C. over night, all the samples were transferred to 96-well polypropylene U-bottom plate, and checked by flow cytometry gated on total lymphocytes.

The test system of data set [2] is IL-15 induced P-STAT5 in human PBMC. Put plainly: PBMC IL-15 induced P-STAT5. The settings on record: human PBMC, IL-15 stimulated, read-out: PBMC IL15-pSTAT5 IC50. The format is cell-based. As to the method: PBMC IL-15 Induced P-STAT5
Frozen human PBMC (200-250 million cells/vial) was thawed at 37° C. The cells were transferred to 10 mL warm medium in a 50-mL conical tube, and centrifuged at 1,200 RPM at room temperature for 5 min. The supernatant was aspirated. […] After adding 47 ml D-PBS (37° C.) to PBMC/FBS suspension, centrifuging at 1,200 RPM at room temperature for 5 min, and aspirating the supernatant, the cells were resuspended in 20 mL warm RPMI medium. Ninety μL of cell suspension were pipetted per well in a 96-well, deep-well, V-bottom plate, and the plate was incubated at 37° C. for 30 min. […] After adding 0.8 mL staining buffer per well, the plates were centrifuged at 1,200 RPM (Beckman GS-6R or Sorvall Legend) at room temperature for 5 min, and again the supernatant was aspirated using a 8-channel or 12-channel manifold. The plate was vortexed, and 0.35 mL 90% methanol/10% H2O (−20° C.) was added per well, and the plate incubated on ice for 20 min. After again adding 0.8 mL staining buffer per well, the plates were centrifuged at 1,200 RPM (Beckman GS-6R or Sorvall Legend) at room temperature for 5 min, and again the supernatant was aspirated using a 8-channel or 12-channel manifold, and then 0.8 mL Staining buffer was added per well. After once again adding 0.8 mL staining buffer per well, the plates were centrifuged at 1,200 RPM (Beckman GS-6R or Sorvall Legend) at room temperature for 5 min, and again the supernatant was aspirated using a 8-channel or 12-channel manifold. […] Samples of 250 μL/well were transferred to a 96-well U-bottom plate, and the FACS analysis was performed gating on total lymphocytes. Samples were analyzed using a BD Calibur™ or BD FACSCanto™ flow cytometer equipped with the BD High Throughput Sampler.

A short description of data set [3]: Stability of JAK3 covalent inhibitors in human whole blood. The settings on record: 1 μM, 37° C.
Source text: Stability of JAK3 Covalent Inhibitors in Rat and Human Whole Blood
Rat blood was collected from 3 male Sprague-Dawley rats (200-250 g, Charles River Laboratories) and pooled for each study. Human blood was collected from one male and one female healthy subjects at the Occupational Health & Wellness Center at Pfizer, Groton, CT and pooled for each study. Both rat and human blood was collected freshly into K2-EDTA tubes and kept on ice. An aliquot of the blood was transferred to microtubes and pre-warmed for 10 min at 37° C. using a heat block. […] An aliquot of the incubation mixture was removed at designated time points during the course of the incubation, mixed with an aliquot of acetonitrile containing an internal standard, vortexed and centrifuged. The resulting supernatants were removed and subjected to LC-MS/MS analyses to determine parent compound concentrations. Peak area ratios of the parent compound vs the internal standard were used to determine the % of parent compound remaining vs incubation time.
Data set [4] concerns the target JAK3 enzyme (Homo sapiens (Human), UniProt P52333). Nature of the data set: JAK Caliper Enzyme Assay at 4 μM or 1 mM ATP. The format is biochemical.
Setting [5] is: read-out: JAK3 (4 μM ATP) IC50, 4 μM ATP.
Setting [6] is: read-out: JAK3 (1 mM ATP) IC50, 1 mM ATP.

Molecules are shown by their SMILES. Read-outs that look alike come from different tables or passages of the source. Where only a bound is given, the exact number is not on record here.

Sequence of JAK3 enzyme (P52333 whole entry, species assumed): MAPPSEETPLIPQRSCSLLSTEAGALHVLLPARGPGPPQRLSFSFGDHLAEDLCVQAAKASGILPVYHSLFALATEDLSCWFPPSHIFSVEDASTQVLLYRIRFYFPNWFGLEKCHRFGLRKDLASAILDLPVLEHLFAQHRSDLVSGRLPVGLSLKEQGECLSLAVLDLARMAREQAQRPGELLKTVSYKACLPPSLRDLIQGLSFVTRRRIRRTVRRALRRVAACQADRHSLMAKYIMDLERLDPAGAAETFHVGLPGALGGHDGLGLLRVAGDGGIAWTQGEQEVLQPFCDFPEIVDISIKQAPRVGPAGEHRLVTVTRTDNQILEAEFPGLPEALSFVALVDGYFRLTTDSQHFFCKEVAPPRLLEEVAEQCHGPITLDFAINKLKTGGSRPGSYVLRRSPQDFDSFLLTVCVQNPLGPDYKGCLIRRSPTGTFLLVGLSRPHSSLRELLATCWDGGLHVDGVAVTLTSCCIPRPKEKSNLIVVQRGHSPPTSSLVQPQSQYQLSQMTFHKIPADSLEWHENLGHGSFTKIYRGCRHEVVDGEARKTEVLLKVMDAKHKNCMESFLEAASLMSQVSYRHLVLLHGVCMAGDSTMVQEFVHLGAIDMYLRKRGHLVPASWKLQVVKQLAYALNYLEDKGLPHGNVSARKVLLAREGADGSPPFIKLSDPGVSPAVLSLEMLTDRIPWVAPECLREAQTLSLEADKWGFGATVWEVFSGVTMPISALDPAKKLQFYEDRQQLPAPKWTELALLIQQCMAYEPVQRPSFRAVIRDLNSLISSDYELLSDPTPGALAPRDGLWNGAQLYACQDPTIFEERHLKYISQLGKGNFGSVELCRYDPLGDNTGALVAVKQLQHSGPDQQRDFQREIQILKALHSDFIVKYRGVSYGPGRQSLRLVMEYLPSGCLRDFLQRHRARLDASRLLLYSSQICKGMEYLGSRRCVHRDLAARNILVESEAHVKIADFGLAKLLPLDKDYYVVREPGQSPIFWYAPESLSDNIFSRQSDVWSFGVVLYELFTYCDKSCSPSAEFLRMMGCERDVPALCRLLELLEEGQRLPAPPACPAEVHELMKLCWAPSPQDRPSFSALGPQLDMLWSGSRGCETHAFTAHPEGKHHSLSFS

Consider `C=CC(=O)N1C[C@H](Nc2ncnc3[nH]ccc23)CC[C@@H]1CO` [Example 161, 1-[(2R,5R)-2-(Hydroxymethyl)-5-(7H-pyrrolo[2,3-d]pyrimidin-4-ylamino)piperidin-1-y]prop-2-en-1-one], for which the IC50 was 0.455 µM in data set [1] and 0.0769 µM in data set [2]. For the same molecule, the “Human blood stability t1/2” value in data set [3] was above 5.392 h.

In the case of `C=CC(=O)N1CCC(Nc2cnc3[nH]cc(C(=O)N[C@@H]4C[C@H]4C(F)(F)F)c3n2)CC1` [Example 233, 2-[(1-acryloylpiperidin-4-yl)amino]-N-[(1R,2R)-2-(trifluoromethyl)cyclopropyl]-5H-pyrrolo[2,3-b]pyrazine-7-carboxamide], the IC50 stood at 0.0002 µM in data set [4] (setting [5]), 0.0206 µM in data set [4] (setting [6]), 0.532 µM in data set [1] (Lymphocyte) and 0.213 µM in data set [2].

Regarding `C=CC(=O)N1CC(Nc2ncnc3[nH]ccc23)CCC1CO` (centres unmarked) [Example 118, 1-[2-(Hydroxymethyl)-5-(7H-pyrrolo[2,3-d]pyrimidin-4-ylamino)piperidin-1-yl]prop-2-en-1-one], the IC50 in data set [2] was above 10 µM. Moreover, the “Human blood stability t1/2” value in data set [3] is above 5.558 h.

For the molecule `C=CC(=O)N1CCC(Oc2cnc3[nH]cc(-c4cnn(C)c4)c3n2)CC1` [Example 218, 1-(4-{[7-(1-methyl-1H-pyrazol-4-yl)-5H-pyrrolo[2,3-b]pyrazin-2-yl]oxy}piperidin-1-yl)prop-2-en-1-one], the concentration for half-maximal inhibition (IC50) in data set [4] (setting [5]) turned out to be 0.0006 µM; in data set [4] (setting [6]) it was 0.0811 µM; in data set [1] (Lymphocyte), 6.19 µM; in data set [2] (Homo sapiens, PBMC), 0.345 µM.

Consider `C/C=C/C(=O)N1CCC[C@@H](Nc2ncnc3[nH]ccc23)C1` [Example 105, (2E)-1-[(3R)-3-(7H-pyrrolo[2,3-d]pyrimidin-4-ylamino)piperidin-1-yl]but-2-en-1-one], for which the IC50 in data set [4] (setting [5]) is 2.48 µM; in data set [4] (setting [6]), above 10 µM. Further, the “Human blood stability t1/2” value in data set [3] is above 6 h.

For `C=CC(=O)N1CCC(Oc2cnc3[nH]cc(-c4ccnc(C)c4)c3n2)CC1` [Example 220, 1-(4-{[7-(2-methylpyridin-4-yl)-5H-pyrrolo[2,3-b]pyrazin-2-yl]oxy}piperidin-1-yl)prop-2-en-1-one], the IC50 was 0.0008 µM in data set [4] (setting [5]), 0.0704 µM in data set [4] (setting [6]) and above 10 µM in data set [1] (Lymphocyte).

In the case of `C=CC(=O)N1C[C@@H](Nc2ncnc3[nH]ccc23)CC[C@H]1CO` [Example 117, 1-[(2S,5S)-2-(Hydroxymethyl)-5-(7H-pyrrolo[2,3-d]pyrimidin-4-ylamino)piperidin-1-yl]prop-2-en-1-one], the IC50 in data set [1] (Lymphocyte) is above 10 µM; in data set [2] (Homo sapiens, PBMC) it was above 10 µM.

Consider `C=CC(=O)N1CC(O)C(Nc2cnc3[nH]cc(C(=O)NC(C)C)c3n2)C1` (centres unmarked) [Example 179, 2-[(1-acryloyl-4-hydroxypyrrolidin-3-yl)amino]-N-(propan-2-yl)-5H-pyrrolo[2,3-b]pyrazine-7-carboxamide], for which the IC50 in data set [4] (setting [5]) was 0.0023 µM; in data set [4] (setting [6]), 0.309 µM; in data set [1] (Lymphocyte) it was above 10 µM; in data set [2], above 10 µM.

For the molecule `C=CC(=O)N1CCC(Nc2cnc3[nH]cc(-c4cncc(C#N)c4)c3n2)CC1` [Example 206, 5-{2-[(1-acryloylpiperidin-4-yl)amino]-5H-pyrrolo[2,3-b]pyrazin-7-yl}pyridine-3-carbonitrile], the IC50 in data set [4] (setting [5]) was 0.0001 µM; in data set [4] (setting [6]), 0.0196 µM; in data set [1] (Lymphocyte), above 10 µM.

Take `C=CC(=O)N1CCC(Oc2cnc3[nH]cc(-c4cccnc4F)c3n2)CC1` [Example 217, 1-(4-{[7-(2-fluoropyridin-3-yl)-5H-pyrrolo[2,3-b]pyrazin-2-yl]oxy}piperidin-1-yl)prop-2-en-1-one]: the IC50 was 0.0007 µM in data set [4] (setting [5]), 0.0424 µM in data set [4] (setting [6]) and above 10 µM in data set [1] (Lymphocyte).

For `C=CC(=O)N1CC2CCN(c3cnc4[nH]cc(C(=O)NC(C)C)c4n3)C2C1` (centres unmarked) [Example 178, 2-(5-acryloylhexahydropyrrolo[3,4-b]pyrrol-1(2H)-yl)-N-(propan-2-yl)-5H-pyrrolo[2,3-b]pyrazine-7-carboxamide], the IC50 is 0.0011 µM in data set [4] (setting [5]); 0.102 µM in data set [4] (setting [6]); 2.56 µM in data set [1] (Lymphocyte); 0.208 µM in data set [2] (Homo sapiens, PBMC).

Values taken from patent US20250134869A1, “Pyrrolo[2,3-d]pyrimidinyl, Pyrrolo[2,3-b]pyrazinyl and Pyrrolo[2,3-d]pyridinyl Acryla-mides” (Pfizer Inc, priority 2021, published 2025).
